The values that follow come from patent US20180282279A1, “Pantothenamide Analogues” (Radboud Universitair Medisch Centrum, priority 2014, published 2018).

Each structure is given as a SMILES string. Where only a bound is given, the exact number is not on record here.

What is called IC50 is the concentration that inhibits the measured activity by half.

Data set [1] deals with Plasmodium falciparum NF54 parasites. Description: P. falciparum asexual blood stage replication assay (SYBR Green). It is filed as cell-based. The note with it: NF54, 10% human serum, 72 incubation. The method, then:
Compounds were tested on their ability to inhibit replication of the human malaria parasite Plasmodium falciparum. To this end, Plasmodium falciparum NF54 parasites were cultured in RPMI1640 medium supplemented with 367 μM hypoxanthine, 25 mM HEPES, 25 mM sodiumbicarbonate and 10% human type A serum in an automated large-scale culture system as described before (Transactions of the Royal Society of Tropical Medicine and Hygiene, 1982. 76: p. 812-818). Compounds were diluted in DMSO and subsequently in culture medium to reach a DMSO concentration of 0.2%. 50 μl of diluted compound was transferred to a black 96 well plate. A culture of P. falciparum strain NF54 malaria parasites was diluted to a parasitaemia of 0.5% and a hematocrit of 3%. 50 μl of this diluted culture was added to each well in the 96 well plate._The outermost wells of the plate were filled with sterile water to prevent evaporation. The established antimalarial dihydroartemisinin (DHA) in DMSO acted as a positive control (MIN signal), and 0.1% DMSO acted as a negative control (MAX signal). The plates were incubated for 72 at 37° C., 3% 02, 5% CO2, 93% N2. Changes in parasite replication relative to the controls were monitored using the DNA-marker SYBR Green as described previously (Antimicrob Agents Chemother 48:1803-6). Data were analyzed by logistic regression using the formula: Y=Bottom+(Top-Bottom)/(1+10̂((Log IC50−X)*HillSlope)) and a least squares method to find the best fit.
Using similar methods, IC50 values were determined for a variety of inverted pantothenamides, as listed in table 1 (see section: ‘Detailed description of the invention’)

In data set [2] the test system is P. falciparum gametocytes. Description: microbe, parasite or virus in culture. The note with it: for IC50: 72 hour incubation, read-out: Gametocyte viability (pLDH) IC50; for effect on gametocyte viability (pLDH activity): FIG. 4A; for extent of inhibition of gametocyte viability: compared with reference compound DHA. It counts as cell-based, Plasmodium falciparum. The method, then:
Compounds were tested for their ability to affect the viability of gametocytes, the sexually committed blood stages of P. falciparum that underlie transmission to the mosquito vector. To this end, two different assays were performed. The first assay monitored pLDH activity as a measure of viability of gametocytes (J Antimicrob Chemother. 2013 September; 68(9):2048-58). The second assay monitored the ability of gametocytes to form a female gamete by detection of the gamete-specific marker Pfs25. Plasmodium falciparum NF54 parasites were cultured in RPMI1640 medium supplemented with 367 μM hypoxanthine, 25 mM HEPES, 25 mM sodiumbicarbonate and 10% human type A serum in an automated large-scale culture system as described before (Transactions of the Royal Society of Tropical Medicine and Hygiene, 1982. 76: p. 812-818). Cultures were treated with 50 mM N-acetyl-D-glucosamine from day 4 till day 9 to kill asexual parasites. On day 11 gametocytes were isolated by discontinuous 63% Percoll gradient centrifugation. Compounds were diluted in DMSO and subsequently in culture medium to reach a DMSO concentration of 0.2%. To measure the effect of compounds of pLDH activity, gametocytes were seeded at a density of 3.5×10^4 gametocytes per well in a black 384 well plate in 30 μl of culture medium, and 30 μl of diluted compound was added. Following a 72 hour incubation at 37° C., 98% humidity, 93% N2, 4% CO2 and 3% O2, gametocyte viability was measured by a modified plasmodium lactate dehydrogenase assay by using resazurin as a substrate as previously described (Nature, 2013. 504(7479): p. 248-53). Assays were performed in quadruplicate (two different plates with two different gametocyte batches) and all plates included controls MIN (1 μM DHA), MAX (0.1% DMSO) and a serial dilution of reference compound dihydroartemisinin (DHA).

Data set [3] deals with P. falciparum gametocytes. Description: Gametocyte female gametogenesis capacity assay (Pfs25 AlphaLISA). It is filed as cell-based. The note with it: Plasmodium falciparum, 72 hours incubation. Here is the method: To monitor compound effects on the ability of a gametocyte to form a female gamete, day 11 (stage IV) gametocytes were seeded at a density of 4×10^5 gametocytes per well in a V-bottom plate in 50 μl culture medium. 50 μl of diluted compound was added to the gametocytes (0.1% DMSO final concentration) and plates were incubated for 72 hours at 37° C., 98% humidity, 93% N2, 4% CO2 and 3% O2. Subsequently, gametogenesis was induced by adding xanthurenic acid to a final concentration of 40 μM and plates were incubated for 16 hours at 20° C. Gametes were detected in a homogeneous proximity immunoassay on basis of Pfs25 expression by use of AlphaLISA technology (Perkin Elmer). All steps were performed at 20° C. Gametes were washed twice with PBS, lysed for 15 min in 10 μl 10 mM Tris pH 8.0/1% laurylsarcosyl/1 mM phenylmethanesulfonyl fluoride and combined with 10 μl 5 nM biotinylated mouse anti-Pfs25 monoclonal antibody 32F6244 in a white 384 well optiplate (Perkin Elmer). After 1 hour incubation 15 μl of 33 μg/ml acceptorbeads coated with mouse anti-Pfs25 monoclonal antibody 32F81 were added. After 1 hour incubation, 15 μl 33 μg/ml Streptavidin-conjugated donorbeads were added. Finally, after 1 hour incubation luminescence signals were monitored at the 615 nm emission wavelength following excitation at 680 nm using a fluorometer (Biotek Synergy 2). All compounds were tested in duplicate (24 hr) or triplicate (1 and 72 hr). Controls included MIN (0.1 μM epoxomicin) and MAX (0.1% DMSO). Data were analyzed by logistic regression using the formula: Y=Bottom+(Top−Bottom)/(1+10̂((Log IC50−X)*HillSlope)) and a least squares method to find the best fit.

In data set [4] the test system is P. falciparum asexual blood stage parasites. Kind of data set: Asexual replication assay in competition with pantothenate. The following applies: log dose ratio −1 vs log pantothenate concentration. It is filed as cell-based, Plasmodium falciparum. Here is the method: FIG. 3: Competition between pantothenic acid and inverted-amide pantothenamide. Asexual replication assays were performed in combinations of pantothenic acid (PA) and CXP18.6-017 (A), CXP18.6-026 (B) and CXP18.6-052 (C). The relative number of parasites was determined by a Sybrgreen DNA detection method. Data are expressed relative to the MAX (0.1% DMSO) and MIN (10 μM DHA) controls. Error bars indicate standard deviations from two independent observations. D) S child regression analysis of combinations of CXP18.6-052 and pantothenic acid.
To study their interaction with pantothenate-dependent pathways, asexual replication assays were performed with CXP18.6-017, CXP18.6-026 and CXP18.6-052 in the presence of increasing amounts pantothenate. When combining a pantothenamide analogue and pantothenate in the same well the conditions were otherwise similar to the single compound assays described above, however the final DMSO concentration was 0.2%, which was also adjusted for the positive and negative controls.

Where [5] appears, read: Table 3, read-out: Gametocyte gametogenesis capacity (Pfs25) IC50.
The mark [6] stands for this setting: FIG. 4B, read-out: female gametogenesis capacity of gametocytes IC50.

Turning to `CC(C)(CO)[C@@H](O)C(=O)NCCNC(=O)CCc1ccccc1` [CXP18.6-006], the IC50 in data set [1] was 0.12 µM; in data set [2] (Plasmodium falciparum), over 10000 nM; in data set [3] (setting [5]), 478 nM.
In the case of `CC(C)(CO)[C@@H](O)C(=O)NCCNC(=O)CCc1ccccc1F` [CXP18.6-017], the IC50 was 0.022 µM in data set [1], 100 nM in data set [2] (Plasmodium falciparum), 37 nM in data set [3] (setting [6]) and 36 nM in data set [3] (setting [5]). Moreover, the “Schild regression analysis with pantothenate” value (“Schild regression analysis” below) in data set [4] was “did not reveal a linear correlation”. Also, the “effect on gametocyte viability (pLDH activity)” value (from here on “effect on gametocyte viability”) in data set [2] was “dose dependently reduced gametocyte viability”. Besides, the “extent of inhibition of gametocyte viability” value in data set [2] was “to the same extent as the reference compound DHA”.
Regarding `Cc1ccc(CCC(=O)NCCNC(=O)[C@H](O)C(C)(C)CO)cc1` [CXP18.6-026], the IC50 in data set [1] was 0.16 µM; in data set [2] (Plasmodium falciparum), 170 nM; in data set [3] (setting [6]), 13 nM; in data set [3] (setting [5]) it was 13 nM. For the same compound, the “Schild regression analysis” value in data set [4] is given as “did not reveal a linear correlation”. For the same compound, in data set [2], the “effect on gametocyte viability” value is on record as “dose dependently reduced gametocyte viability”. Besides, in data set [2], the “extent of inhibition of gametocyte viability” value was “to the same extent as the reference compound DHA”.
Turning to `CC(C)(CO)[C@@H](O)C(=O)NCCNC(=O)CCc1cccnc1` [CXP18.6-052], the results for the IC50 in data set [1] and in data set [3] (setting [6]) were 0.008 µM and 1970 nM, respectively. Further, the “Schild regression analysis” value in data set [4] is “competitive antagonism”. The “effect on gametocyte viability” value in data set [2] is on record as “dose dependently reduced gametocyte viability”. In addition, the “maximum inhibition of gametocyte viability” value in data set [2] (Plasmodium falciparum, 72 h) is given as about 50%.
